According to patent US20220401352A1, “A COSMETIC COMPOSITION” (Conopco, Inc., d/b/a UNILEVER, priority 2019, published 2022):
Where a name gives a salt, the structure may show the parent alone.

Tests used:
THP1-XBlue cells = assay: Cell viability in the THP-1 in vitro assay; assay type: cell-based, human; conditions: PMA-differentiated THP1-XBlue cells co-treated with LPS and composition, 24 hours; percentage to non-treated cells (=100%)
Protocol: (§1) The following procedure was used to determine the anti-inflammation efficacy: THP1-XBlue™ (Cat No: thpx-sp, InvivoGen) cells were cultured as suspense in RPMI 1640 medium supplemented with 10% FBS, penicillin (10 U/mL)-streptomycin (10 μg/ML). Cells were differentiated in 24-well plates at the density of 5×10^5 cells/well with 100 nM PMA for 72 hours. Cells were then co-treated with pure E. coli ipopolysaccharides (LPS) and various compositions. After 24 hours, the supernatants were collected and measured for interleukin (IL)-6 as a pro-inflammatory biomarker using enzyme-linked immunosorbent assay (ELISA). IL-6 is a cytokine, or cell-signaling protein, encoded in humans by the IL-6 gene which is both pro-inflammatory and anti-inflammatory and which stimulates the immune response to inflammation. Expression of IL-6 was calculated as the percentage to LPS-treated cells which was designated as 100%. It can be considered as no anti-inflammatory effect if the calculated result is over 100%. Cell viability was calculated as the percentage to non-treated cells which was designated as 100%. P value was analyzed by Student's t-test comparing combination groups and individual compound groups (expression of IL-6). P value <0.05 indicates synergistic effect.

interleukin (IL)-6 = assay: Human immune cell line THP-1 in vitro assay: IL-6 in supernatant by ELISA after co-treatment with LPS; assay type: cell-based; conditions: PMA-differentiated THP1-XBlue cells co-treated with E. coli LPS and composition, 24 hours; percentage to LPS-treated cells (=100%)
Protocol: as §1, with “Human Immune Cell Line THP-1 Invitro Assay The” for “The”, “IL-6).” for “IL-6). P value <0.05 indicates synergistic effect.”

Compound	Cell Viability (%) (THP1-XBlue cells)	expression of IL-6 (%) (interleukin (IL)-6)
Cc1cc(CC(C)CC(C)(C)C)n(O)c(=O)c1 (stereo not shown) [B, 1-hydroxy-4-methyl-6-(2,4,4-trimethylpentyl)-2(1H) pyridinone monoethanolamine salt]	81%	76.4%
OCc1ccccc1O[C@@H]1O[C@H](CO)[C@@H](O)[C@H](O)[C@H]1O [C, salicin]	86%	65.0%
